In a melting point compilation (Tetko et al.; mined from patent text by program, amines drawn as free bases though some values may be those of a salt) one finds melting point data, which are given here for 89 molecules.

Each structure is given as a SMILES string. A value given as a limit tells only on which side of the number the result lay.

A word on the melting point: it is the temperature of the solid-liquid transition. Regarding `CCOC(=O)C(CC(=O)c1ccccc1C)(NC(C)=O)C(=O)OCC`, the melting point was in the range of 146 to 147 °C.

`COC(=O)C1=C(C)Nc2nccn2C1C1CCCCC1` (centres undefined) yielded a melting point of 178 °C.

In turn, `CC1C(C(N)=O)CC2CC1C2(C)C` (single isomer, unassigned; (+)) gave a melting point of 131 °C.

Regarding `COc1ccc(N=C=O)cc1`, the melting point was in the range of 83 to 84 °C.

`CSc1nnc2c(=O)[nH]c(-c3ccccc3OCC(C)C)nc2n1` had a melting point of 237 to 238 °C.

In turn, `COc1ccc(-c2cccc(C(=O)NO)c2C)cc1OCCCCCc1ccccc1` displayed a melting point of 125 to 126 °C.

The molecule `CCOCCOc1ccc(-c2ccc3c(c2)C=C(C(=O)Nc2ccc(CN(C)C4CCOCC4)cc2)CCS3(=O)=O)cc1` registered a melting point of 215 to 217 °C.

Molecule `COC(=O)CN1C(=S)CN=C(c2ccccc2)c2cc(Cl)ccc21` registered a melting point of 180 to 182 °C.

Molecule `NC(=O)c1cc(C(=O)O)c2c(c1)C(C(=O)O)CCN2` (centres undefined) yielded a melting point of 265 to 266 °C.

With `O=C(C=Cc1ccc(O)cc1)N1CCc2c([nH]c3ccccc23)C1c1ccc2c(c1)OCO2` (centres undefined), the melting point was 175 °C.

For `COc1ccc(-c2c(N[C@H](C)c3ccccc3)c(=O)c2=O)cc1`, the melting point fell in the range of 159 to 160 °C.

As to `Cc1cc(O)c(S(=O)Cc2ccc(F)cc2)c(=O)o1` (centres undefined), the melting point lay in the range of 127 to 128 °C.

Take `O=c1[nH]c2c(I)c(Br)c(Br)c(I)c2[nH]c1=O`: the melting point is > 350 °C.

The molecule `Cc1cc(-c2nnn(C)n2)cc(C)c1OCCCCc1nccn1C` showed a melting point of 100 to 102 °C.

The molecule `COc1ccc(CNc2nnc(-n3ccc(=O)cc3)c3ccc(C#N)cc23)cc1Cl` yielded a melting point of 218 to 219 °C.

The molecule `CCOC(=O)Nc1c(OC)cc(Cc2cnc(N)nc2N)cc1OC` came in with a melting point of 192 to 193 °C.

Molecule `C[C@@H](NS(=O)(=O)c1ccc(-c2c(C#N)c3cc(Cl)ncc3n2C2CCC2)nc1)C(F)(F)F` showed a melting point of 181 to 185 °C.

As to `Cc1ccc(C(=O)c2ccc(Cl)cc2)c(Cl)c1`, the melting point lay within 58 to 60.5 °C.

The molecule `CCn1c(=O)c2[nH]c(C(C)C)nc2n(Cc2ccc(OC)c(OC3CCCC3)c2)c1=O` had a melting point of 208 to 209 °C.

On to `CN1CCN(CCCc2c[nH]c(-c3ccc(F)cc3)c2-c2ccncc2)CC1`, for which the melting point fell in the range of 190 to 192 °C.

`CC(C)(C)c1cc(N)n(-c2cccc(Oc3ccccc3)c2)n1` yielded a melting point of 108 to 110 °C.

With `Cc1c(-c2ccccc2)c(N2CC[C@@H](N(C)C)C2)c2oc(C(=O)N(C)C)nc2c1C#N`, the melting point was in the range of 67 to 70 °C.

`O=C(O)C(=O)c1ccc(OCCCC(=O)c2ccc3ccccc3c2)cc1` had a melting point of 133 to 135 °C.

On to `COc1cc2c(c3c1OC(C)(C)C3)C(c1cccc(SCC(N)=O)c1)=NC(C)(C)C2`, for which the melting point was in the range of 118 to 120 °C.

Take `CCCc1nnc2n1-c1ccccc1CS2`: the melting point was determined as 114 °C.

The molecule `CCOCCNC(=O)OCCCc1ccc(OCCOC)cc1Oc1ncc(C(F)(F)F)cc1Cl` came in with a melting point of 66 to 68 °C.

Molecule `CCOC(=O)C1CC(=O)c2c(C)c(O)c(C)c(C)c2O1` (centres undefined) came in with a melting point of 120 to 121 °C.

Consider `COC(=O)CCCC#Cc1cc(Cl)ccc1NS(=O)(=O)c1ccc2c(c1)CCC(=O)N2`, for which the melting point lay within 53 to 57 °C.

The molecule `Cc1cc(Br)ccc1NC(=O)CC(=O)NCCO` returned a melting point of 139 to 142 °C.

For the molecule `CC(C)NC(=O)N1C(=O)Cc2ccccc21`, the melting point was 84 to 85.5 °C.

Turning to `CCCN1CC(c2ccc(C)cc2)=C(c2ccc(S(C)(=O)=O)cc2)C1=O`, the melting point lay within 156 to 158 °C.

Turning to `CCOC(=O)Cc1nsc(Nc2ccc(F)c(F)c2)n1`, the melting point is 84 to 90 °C.

Regarding `Cc1nc(F)c(S(C)(=O)=O)c(F)n1`, the melting point is 120 to 123 °C.

The molecule `CCCCCCCCC(=CC=C(O)C(=O)OCC)C(=O)OCC` returned a melting point of 58 °C.

For the molecule `COc1ccc(CN2C(=O)C(C)(c3cc(N(S(C)(=O)=O)S(C)(=O)=O)ccc3Cl)c3cc(Cl)ccc32)c(OC)c1` (centres undefined), the melting point worked out at 159 °C.

In the case of `ON=C1CCC2(O)C3Cc4ccc(O)c5c4C2(CCN3CC2CC2)C1O5` (centres undefined), the melting point was 235 to 236 °C.

With `CCOC(=O)CNc1c(C#N)cnn1-c1ccc(C(F)(F)F)cc1Cl`, the melting point lay within 100 to 102 °C.

`COc1cc(OC)nc(-n2c(S(C)(=O)=O)nc3ccccc32)n1` had a melting point of 114 to 117 °C.

In turn, `N#CCCc1cccc([N+](=O)[O-])c1` displayed a melting point of 86 to 88 °C.

Regarding `COc1cc2ncc(C#N)c(Oc3cccc(Br)c3)c2cc1OC`, the melting point was 187 to 190 °C.

`C=Cc1cc(OC(C)=O)cc2nc(-c3ccc(OC(C)=O)c(F)c3)oc12` returned a melting point of 154 to 156 °C.

As for `CCc1c(OC)nc(OC)nc1C(=O)c1cc(C)cc(CO)c1`, the melting point is 101 to 103 °C.

`CN(C)N1C(=O)C(Cc2ccncc2)(Cc2ccncc2)c2ccccc21` had a melting point of 190 to 193 °C.

Turning to `CCNc1nc(-c2cccc(C3=Nc4cc(N(C)C)c(Cl)cc4NC(=O)C3)c2)cs1`, the melting point lay in the range of 122 to 123 °C.

`O=S(=O)(Nc1cccc(CCOCc2cccc(-c3ccc(F)cc3)n2)c1)C(F)(F)F`: the melting point lay in the range of 71 to 73 °C.

In turn, `C[C@H]1COS(=O)(=O)N1C(=O)OC(C)(C)C` had a melting point of 121 to 122 °C.

Molecule `COc1ccc(C(=O)n2c3c(c4ccccc42)CC(C(=O)O)CC3)cc1` (centres undefined) displayed a melting point of 195 °C.

`CCOc1cc(C(=O)N2CCC(CCN3CCC(C(N)=O)(c4ccccc4)CC3)(c3ccc(OC)c(OC)c3)C2)cc(OCC)c1OCC` (centres undefined): the melting point was in the range of 139 to 141 °C.

Regarding `CSc1nc(-c2ccncc2)cc(=O)n1C`, the melting point lay within 176 to 178 °C.

For the molecule `CCOC(=O)c1c(SC)nc(-c2ccc(SC)cc2)n(-c2ccc(C)cc2)c1=O`, the melting point lay in the range of 153 to 155 °C.

`O=C(NC1CCCc2ccccc21)c1ccc2n1Cc1ccccc1N(C(=O)CSc1ccc(Br)cc1)C2` (centres undefined) returned a melting point of 163 to 165 °C.

As for `O=C1Nc2cc3c(cc2OC1CCCN1CCN(c2ccc(F)cc2)CC1)CCCC3` (centres undefined), the melting point lay within 156 to 157 °C.

`CC(C)=CC(=O)c1sccc1O` displayed a melting point of 32 to 33 °C.

`CC1(C)C=C(c2ccccn2)C2=C(CC=CC(C#N)=C2)C1` returned a melting point of 120 °C.

With `COC(=O)c1ccc(S(C)(=O)=O)c(C=O)c1Cl`, the melting point was in the range of 98 to 105 °C.

With `C=C(CO)[C@H](C(=O)OC(c1ccccc1)c1ccccc1)N1C(=O)[C@@H]2N=C(c3ccccc3)O[C@@H]21`, the melting point fell in the range of 100 to 104 °C.

The molecule `FC(F)(F)c1nc(N=C(Cl)c2cccc(Cl)c2)sc1Cl` displayed a melting point of 89 to 90 °C.

With `NS(=O)(=O)c1ccc([C@H]2[C@H](C(=O)Nc3ccc(C(F)(F)F)cc3)C23CCCC3)cc1` (relative stereo), the melting point is 234 to 236 °C.

The molecule `O=C(NCc1ccncc1)c1[nH]c2ccc(Cl)cc2c1S(=O)c1ccccc1` (centres undefined) came in with a melting point of 233 to 235 °C.

In turn, `Cc1ccc(C(=O)N[C@@H]2COc3c(C)ccc(N4CCN(C)CC4)c3C2)cc1` returned a melting point of 191 to 192 °C.

`O=C1Nc2ccc(Cl)cc2C(OCC2CC2)(C(F)(F)F)CN1C1CCC1` (centres undefined) registered a melting point of 156 °C.

Molecule `OCC1CCc2cc3ccccc3n2CC1` (centres undefined) registered a melting point of 90 to 91 °C.

In the case of `NS(=O)(=O)c1cccc(NC(=O)c2cnn3c(C(F)(F)F)cc(-c4ccc(Cl)c(Cl)c4)nc23)c1`, the melting point turned out to be 302 °C.

`CCCN(C(=O)CCl)[C@@H]1CCc2cc3c(cc2[C@H]1O)OCC3` (relative stereo) yielded a melting point of 65 to 70 °C.

The molecule `O=C1N=C2CCCCN2C12CCNCC2` had a melting point of 220 °C.

In turn, `CC(C)NCC(O)COc1ccc2cn[nH]c(=O)c2c1` (centres undefined) showed a melting point of 232 to 235 °C.

The molecule `Cc1cccc(NC(=O)NC2N=C(CN3CC4CCC(CC4)C3)c3cccc(C)c3N(C)C2=O)c1` (centres undefined) had a melting point of 146 to 149 °C.

In the case of `COc1cc(N)c(Cl)cc1C(=O)NN1CCN(C)CC1`, the melting point turned out to be 220 °C.

As to `COC(=O)c1ccc(N2C3CCC2CN(CC(=O)N2CC=C(c4cccc5ccsc45)CC2)C3)nc1`, the melting point was 153 to 154 °C.

Consider `Cc1ccnc(NC(=O)c2c(-c3ccc(F)cc3)c(-c3ccc(F)cc3)c(C=O)n2C(C)C)n1`, for which the melting point lay within 173 to 175 °C.

The molecule `Cc1ccnc(Nc2nc(-c3cc(-c4ccc(Cl)cc4)no3)cs2)c1` had a melting point of 209 to 211 °C.

For the molecule `CC(C)NC(=O)c1nc(-c2ccccc2F)c(-c2ccc(=O)n(C(C)C)n2)s1`, the melting point is 129 to 130 °C.

Consider `O=C1SCc2c1cccc2[N+](=O)[O-]`, for which the melting point fell in the range of 128 to 133 °C.

In turn, `CC(=O)c1ccc2c(c1)CCCS2` returned a melting point of 49.5 to 50.5 °C.

`COc1ccc2c(c1)nc(Cn1ccnc1)n2-c1ccccc1`: the melting point was in the range of 104 to 106 °C.

On to `COCCCn1ccc2c1CC(c1ccccc1Cl)C1C(=O)NC(=O)C21` (centres undefined), for which the melting point lay within 75 to 90 °C.

As to `CC12CCC1C(=O)OC2=O` (centres undefined), the melting point is 59 to 60 °C.

`c1ccc(-c2ccc3nncn3n2)nc1` had a melting point of 191 to 192 °C.

Consider `Nc1c([N+](=O)[O-])nc(Cl)c2nncn12`, for which the melting point worked out at 220 °C.

Take `O=C(N[C@H]1CC[C@@H](F)CC1)OCc1ccccc1`: the melting point is 105 to 107 °C.

On to `Cc1csc(N2C(=O)C(Cc3ccccc3)NC2=S)n1` (centres undefined), for which the melting point lay in the range of 169 to 171 °C.

In the case of `C=C(c1ccccc1)c1cccc(C(C)C(=O)OC)c1` (centres undefined), the melting point fell in the range of 69 to 71 °C.

Molecule `CCCCCCCCCCCCCCCCCCNC(=O)OCC(CNS(=O)(=O)CCCCl)COC` (centres undefined) came in with a melting point of 72 to 73 °C.

`COc1cccc(C=C2CCc3c2nc2ccc(C(=O)O)cn2c3=O)c1` came in with a melting point of 310 to 312 °C.

For `C[C@@]12CCCN1[C@@H](C(Cl)(Cl)Cl)OC2=O`, the melting point lay in the range of 55 to 57 °C.

As to `O=S(=O)(Nc1cccc(OCc2cccc(-c3ccccc3)n2)c1)C(F)(F)F`, the melting point was in the range of 115 to 117 °C.

For the molecule `Cc1cc(C2(c3ccc(O)cc3)c3ccccc3-c3ccccc32)cc(C)c1O`, the melting point lay in the range of 90 to 105 °C.

Regarding `Cc1ccccc1NO`, the melting point was 38 to 39 °C.

In the case of `Cc1cc(F)ccc1-n1c(CF)nc2ccc([N+](=O)[O-])cc2c1=O`, the melting point was 171 to 173 °C.
